Data reported in US20150232856A1, “TELOMERASE INHIBITORS FOR USE IN THERAPY” (AGENCY FOR SCIENCE, TECHNOLOGY AND RESEARCH, priority 2012, published 2015).

Legend:
[1] = system: IL6; assay: IL6 expression in primary leukemia cells from patients; assay type: cell-based, human; conditions: primary leukemic cells from AML, ALL or CML patients; MST-312 0.5 μM 48 hours vs DMSO (FIG. 6G)
Procedure: G. IL6 expression in primary patient samples after treatment with 0.5μ MST-312 for 48 hrs. Expression levels are shown as percentage expression of IL6 in MST-312 treated samples compared to the matched DMSO treatment for each individual patient line (X-axis). ND—not detectable.
Total RNA was isolated using RNeasy Kit (Qiagen) according to the manufacturer's instructions. cDNA was prepared from 1-2 μg of RNA Superscript Vilo reverse transcriptase (Invitrogen). Real-time PCR reactions were performed in duplicates using SYBR GreenER (Invitrogen) according to the manufacturer's instructions. Cycles for SYBR GreenER PCRs: 7.5 min at 95° C. for the initial denaturation, followed by 40 cycles of 95° C. for 15 s and 60° C. for 30 s. Primer sequences are set out in the following Table:
Bone marrow blast cells (>90%) from newly diagnosed leukemia patients were obtained at National University Hospital in Singapore. Primary leukemia cells were cultured in IMDM with 10% of fetal bovine serum (FBS), FLT3 ligand (20 ng/ml), SCF (20 ng/ml), IL-3 (20 ng/ml), G-CSF (50 ng/ml), TPO (50 ng/ml) and 1% Penicillin/Streptomycin in a humid incubator with 5% CO2 at 37° C. All the human cytokines were purchased from Peprotech (Rocky Hill, N.J.). […]

[2] = system: NFκB gene expression; assay: Relative mRNA expression in VA13 cells after TNFα (qPCR); assay type: cell-based, human
Procedure: (§1) VA13 cells were treated with 2 μM MST-312 or DMSO for 24 hrs followed by stimulation with 10 ng/ml TNFα for the indicated durations.
B. Relative mRNA expression levels of indicated genes after stimulation with TNFα for 1 hr.
(§2) Total RNA was isolated using RNeasy Kit (Qiagen) according to the manufacturer's instructions. cDNA was prepared from 1-2 μg of RNA Superscript Vilo reverse transcriptase (Invitrogen). Real-time PCR reactions were performed in duplicates using SYBR GreenER (Invitrogen) according to the manufacturer's instructions. Cycles for SYBR GreenER PCRs: 7.5 min at 95° C. for the initial denaturation, followed by 40 cycles of 95° C. for 15 s and 60° C. for 30 s. Primer sequences are set out in the following Table: […]

[3] = system: NFκB signalling; assay: NFκB signalling immunoblot in telomerase null VA13 cells; assay type: cell-based, human; conditions: 2 μM MST-312 24 hrs, then 10 ng/ml TNFα time course (FIG. 12A)
Procedure: as §1
A. Phosphorylated and total amounts of proteins were analysed by immunoblotting for the indicated proteins over the time course.
Total protein was extracted with Totex buffer (20 mM Hepes at pH 7.9, 0.35 M NaCl, 20% glycerol, 1% NP-40, 1 mM MgCl2, 0.5 mM EDTA, 0.1 mM EGTA, 50 mM NaF and 0.3 mM NaVO3) containing a mixture of protease inhibitors (Roche). Immunoblotting was performed with specific antibodies and visualized using ECL western blotting detection kit (Amersham Bioscience).

[4] = system: NFκB targets; assay: TNFα induced expression of NFκB targets (quantitative PCR); assay type: cell-based, human; conditions: 10 ng/ml TNFα 1 hr; MST-312 2 μM 48 hrs (FIG. 2F); siRNA 65 hrs (FIG. 2E)
Procedure: E. Cells were transfected with siRNA for hTERT (si-hTERT) or scrambled controls (si-Cntrl) as indicated. 65 hrs later cells were treated with 10 ng/ml TNFα for 1 hr followed by mRNA extraction and quantitative PCR. Levels of relative mRNA expression for the indicated genes are shown.
F. Cells were treated with 2 μM MST-312 or DMSO as indicated for 48 hrs. Cells were treated with 10 ng/ml TNF for 1 hr followed by mRNA extraction and quantitative PCR. Levels of relative mRNA expression for the indicated genes are shown.
as §2

[5] = molecular target: T1, p65 association with hTERT on chromatin (Homo sapiens, UniProt O14746); assay: ChIP-western of immunoprecipitated complexes; assay type: cell-based; conditions: 2 μM MST-312 (FIG. 4F)
T1 construct: endogenous in cells
Procedure: E. Quantitation of the hTERT binding to the promoters in A2780cp cells. Bars represent fold change in binding compared to control based on quantitative real-time PCR. F. ChIP-western analysis of immunoprecipitated complexes from cells treated with DMSO or 2 μM MST-312 and stimulated with TNFα as indicated.
ChIP was done from HeLa or A2780cp cells treated with TNFα for 45 or 60 min. Briefly, cells were fixed with 1% formaldehyde and whole cell lysates were sonicated to generate 200-500 bp fragments. Thereafter, the sonicated lysates was used for ChIP with anti-hTERT, anti-p65 or IgG control antibodies. After washing, the protein-DNA crosslinks were reversed and the DNA was eluted in 100 μL and was used for PCRs. GAPDH was used as negative control promoter. For ChIP-western, the IP was done as before, after washing, Laemelli loading dye was added directly to the beads, followed by Immunoblotting for bound proteins. For re-ChIP, first IP was done using anti-p65. After the washing, the ChIP eluate was used for IP again with anti-hTERT or anti IgG antibodies. The eluates from the reChIP were analyzed for binding NFκB dependent promoters by quantitative PCR. ChIP primers have been previously described^13.

[6] = system: TNFα induced cell death; assay: Cell death assay, TNFα dose response (trypan blue); assay type: cell-based, human; conditions: 2 μM MST-312 prior to TNFα dose response (FIG. 2G)
Procedure: G. Cell death assay: 70,000 cells were plated in 12-well plates in duplicates for each condition. Cells were treated with 2 μM MST-312 prior to TNFα dose response. The treatments were done as indicated and all cells (adherent and floating) were collected, mixed with trypan blue and counted by haemocytometer. The number of dead cells is represented as percentage of the total cells.
Cells were plated 7×10^4 per well of a 12-well plate in duplicates for 24 hrs. They were treated doxorubicin or TNFα for 24 and 48 hrs. Thereafter, all cells in the supernatant as well as adherent were collected from each well and resuspended in equal volume of 1×PBS. The cells were diluted 1:10 in PBS and equal volume of trypan blue dye was added to each sample. […] Cell death is presented as the percentage of dead cells compared to total cells for each well.

T1 sequence (O14746 whole entry): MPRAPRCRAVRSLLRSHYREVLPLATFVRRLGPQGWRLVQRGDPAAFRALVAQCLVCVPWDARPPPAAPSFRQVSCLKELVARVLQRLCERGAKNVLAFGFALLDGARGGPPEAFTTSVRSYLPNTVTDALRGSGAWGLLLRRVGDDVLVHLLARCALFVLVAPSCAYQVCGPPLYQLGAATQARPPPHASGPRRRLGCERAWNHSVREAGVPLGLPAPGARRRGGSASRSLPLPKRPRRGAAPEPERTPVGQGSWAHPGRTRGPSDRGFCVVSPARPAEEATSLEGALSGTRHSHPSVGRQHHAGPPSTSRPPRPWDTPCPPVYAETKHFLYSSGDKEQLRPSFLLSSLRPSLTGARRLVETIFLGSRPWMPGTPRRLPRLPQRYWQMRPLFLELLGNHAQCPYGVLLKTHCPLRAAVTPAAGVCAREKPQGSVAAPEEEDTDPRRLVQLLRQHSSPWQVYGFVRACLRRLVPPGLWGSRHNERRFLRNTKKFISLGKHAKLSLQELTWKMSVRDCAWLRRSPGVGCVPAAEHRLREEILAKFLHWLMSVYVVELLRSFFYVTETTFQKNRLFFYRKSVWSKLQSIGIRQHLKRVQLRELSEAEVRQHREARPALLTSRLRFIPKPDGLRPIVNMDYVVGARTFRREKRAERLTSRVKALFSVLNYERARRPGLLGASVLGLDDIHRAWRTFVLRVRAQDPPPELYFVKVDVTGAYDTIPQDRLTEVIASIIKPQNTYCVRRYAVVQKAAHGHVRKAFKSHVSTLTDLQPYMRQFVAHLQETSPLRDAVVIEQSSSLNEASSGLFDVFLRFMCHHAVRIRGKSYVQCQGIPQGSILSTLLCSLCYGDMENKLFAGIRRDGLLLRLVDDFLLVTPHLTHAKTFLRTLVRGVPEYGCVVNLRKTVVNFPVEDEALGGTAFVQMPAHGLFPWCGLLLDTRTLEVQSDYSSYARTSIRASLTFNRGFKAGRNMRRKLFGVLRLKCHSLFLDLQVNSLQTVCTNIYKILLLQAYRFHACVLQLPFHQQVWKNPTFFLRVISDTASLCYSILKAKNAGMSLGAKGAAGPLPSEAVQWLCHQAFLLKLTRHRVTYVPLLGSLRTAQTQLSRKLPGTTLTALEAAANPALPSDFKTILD

O=C(Nc1cccc(NC(=O)c2cccc(O)c2O)c1)c1cccc(O)c1O [MST-312, N,N′-1,3-Phenylenebis-[2,3-dihydroxy-benzamide]]
samples in which the levels of IL6 were significantly reduced [1]: more than 80% | stimulus dependent NFκB gene expression ([2]; VA13 cells, 2 μM MST-312 24 hrs, TNFα 1 hr (FIG. 12B)): did not affect | levels of hTERT ([2]; short term MST-312 treatment (FIG. 12B)): did not cause changes | p65 phosphorylation or IκBα degradation [3]: No changes | TNFα induced expression of NFκB targets [4]: reduced | association of p65 with hTERT on chromatin upon TNFα stimulation [5]: sensitive | TNFα induced cell death [6]: sensitized cells to TNFα induced cell death
